Source: ChEMBL document CHEMBL1145413, “Dehydroxychlorofusarielin B, an antibacterial polyoxygenated decalin derivative from the marine-derived fungus Aspergillus sp” (2007)
≈ marks a conversion by molar mass, not a printed value.

What was measured:
Type in all cases: functional
Staphylococcus aureus [1] = test: Antibacterial activity against multidrug-resistant Staphylococcus aureus after 18 hrs by dilution method
Staphylococcus aureus [2] = test: Antibacterial activity against Staphylococcus aureus after 18 hrs by dilution method
Staphylococcus aureus [3] = test: Antibacterial activity against methicillin-resistant Staphylococcus aureus after 18 hrs by dilution method

| SMILES | MIC (Staphylococcus aureus [1]) [mg/L] | MIC (Staphylococcus aureus [2]) [mg/L] | MIC (Staphylococcus aureus [3]) [mg/L] |
| --- | --- | --- | --- |
| C/C=C(\C)[C@H]1[C@@H](/C=C/C=C(\C)[C@@H](O)[C@@H](C)CO)[C@@H]2C[C@@H](Cl)[C@](C)(O)C[C@H]2[C@@H]2O[C@@]21C [DEHYDROXYCHLOROFUSARIELIN B] | 62.5 (≈ 142 µM) | 62.5 (≈ 142 µM) | 62.5 (≈ 142 µM) |
| C/C=C(\C)[C@H]1[C@@H](/C=C/C=C(\C)[C@@H](O)[C@@H](C)CO)[C@@H]2C[C@@H](O)[C@](C)(O)C[C@H]2[C@@H]2O[C@@]21C [FUSARIELIN B] | 62.5 (≈ 149 µM) | 62.5 (≈ 149 µM) | 62.5 (≈ 149 µM) |
| C/C=C(\C)[C@H]1[C@@H](/C=C/C=C(\C)[C@@H](O)[C@@H](C)CO)[C@@H]2C[C@@H]3O[C@]3(C)C[C@H]2[C@@H]2O[C@@]21C [FUSARIELIN A] | 62.5 (≈ 155 µM) | 32.5 (≈ 80.7 µM) | 32.5 (≈ 80.7 µM) |
